The subject of data set [1] is PAEC. The settings on record: 500 μM H2O2, 1 hour.
Protocol: PAEC were cultured and infected as previously described. Forty-eight hours after infection, PAEC were incubated for 1 hour under 500 μM H2O2 in serum-free M199; control groups were incubated in serum-free M199. […] After incubation, 3 μM propidium iodide (PI) was added to each sample and incubated for 8 minutes. Samples were then washed with serum-free M199 and imaged at an exposure of 2500 ms. All fluorescent images were acquired in phenyl-red free media.
The test system of data set [2] is Porcine aortic endothelial cells (PAEC). To be noted: static.
Data set [3] deals with PAEC. The experiment in a line: L-NAME inhibition of eNOS, superoxide by DHE, static. In kind it is cell-based, Porcine. How it is done:
In order to ascertain the role of eNOS in endothelial cell superoxide production, the presence of superoxide was probed in the presence of L-NAME. […] After incubation, 2 μM DHE was added to each sample and incubated for 30 minutes. […] Image analysis was conducted with Slidebook 4 Imaging Software (company). Statistical analyses were conducted using the Student's t-Test assuming unequal variance. Values are reported as mean±standard error of the mean (SEM).

For data set [4], the system named is PAEC. The experiment in a line: Determination of intracellular superoxide by DHE, static culture (Example 2). Type of data set: cell-based, Porcine. To be noted: for % of cells with fluorescent nuclei, hydrogen peroxide exposed sample with inhibitor: 60 μM H2O2; for % of cells with fluorescent nuclei, hydrogen peroxide exposed sample with inhibitor / % cells with fluorescent nuclei, control sample cultured with inhibitor: apocynin 0.25 μM; for % cells with fluorescent nuclei, control sample cultured with inhibitor: no H2O2. The procedure:
Adenoviral-mediated gene transfer was conducted by infection of endothelial cells (85-95% confluence, University of Iowa Cardiovascular Research Center Cell Culture Facility) as previously described (Fang et al., 1998). Ad5CMVSOD2, Ad5CMVeNOS, and Ad5CMVeGFP were acquired from the University of Iowa Gene Transfer Vector Core (REF); Ad5CMVeGFP was used as a negative control. Porcine aortic endothelial cells were incubated with 125 PFU/cell MnSOD/eNOS/eGFP adenovirus in serum-free M199. To improve the efficiency of adenoviral uptake, the adenoviral stock was incubated for 30 minutes prior to addition to cell cultures (Kossila et al., 2002). Infected PAEC were incubated under standard conditions. After 3 hours, the virus-containing solution was removed, samples were washed with serum-free M199, and M199 supplemented with 1% Penicillin-Streptomycin and 2% FBS was added. After 45 hours of incubation (48 hours after initiation of infection) cells were prepared for experimentation.
Incubation continued for an additional 30 minutes with 2 μM dihydroethidium (Miller et al., 1998; Carter et al., 1994) (DHE, Molecular Probes). […] Images were captured using a Zeiss Axiovert S100 fluorescent microscope. Images were collected at a standard exposure of 4500 ms.
Image analysis was conducted with Slidebook 4 Imaging Software (company). Statistical analyses were conducted using the Student's t-Test assuming unequal variance. Values are reported as mean±standard error of the mean (SEM).

Data set [5] has as its system Porcine aortic endothelial cells (PAEC). The settings on record: shear 24.4 ml/min (2.2 dynes/cm2), 100 μM H2O2, 1.5 hours.
Protocol: The flow system provided for oscillatory, laminar flow across the sample. […] Due to these factors, an increase in concentration to 100 μM H2O2 was necessary for experimentation under shearing conditions.
An Immunetics flow cell (Li et al., 1996) was prepared by first flushing the fluid path with deionized water and then phenyl red free M199. After flushing, 50 ml of the circulating medium was added and allowed to perfuse for 5 minutes while warming to 37° C. PAEC were then placed in the flow cell and the flow cell was secured to the microscope stage. Endothelial cells were maintained at 37° C. by fluid flow through a water bath (Precision, Winchester, Va.), at a flow rate of 24.4 ml/min (2.2 dynes/cm2), for 1.5 hours under 100 μM H2O2 in circulating medium. The PAEC not exposed to H2O2 were subjected to the same flow rate in serum free and phenyl red free M199 without H2O2. […] The experiment was conducted under constant imaging, with images being captured at 0, 15, 30, 60, and 90 minutes. […] All fluorescent images were acquired with phenyl red free media to eliminate interference of phenyl red and FBS in fluorescent imaging.
Data set [6] has as its system PAEC. Type of data set: cell-based, Porcine. The procedure: An Immunetics cell adhesion chamber (Cambridge, Mass.) was utilized to determine PAEC behavior under shearing conditions. […] PAEC were exposed to a constant flow rate of 24.4 ml/min (2.2 dynes/cm^2) for 1.5 hours. Maintenance of PAEC at 37° C. was achieved by using a fluid reservoir contained in a constant temperature water bath (Precision). Challenged PAEC were exposed to 100 μM H2O2 in serum-free and phenyl red free M199; control PAEC were exposed to serum-free and phenyl red free M199 without H2O2.
After 1 hour of incubation, 2 μM dihydroethidium was added to the media reservoir.
Hydroethidium was used to examine superoxide production of infected and non-infected PAEC under H2O2 induced oxidative stress. PAEC on glass slides were subjected to laminar flow at 24.4 ml/min (2 dynes/cm^2). The circulating fluid contained 2 μM dihydroethidium as a marker for superoxide production.

Data set [7] has as its system PAEC. The experiment in a line: Nitric oxide production (Greiss assay, DAF-FM diacetate staining). In kind it is cell-based, Porcine. To be noted: H2O2 exposure, limited length of experimentation. An excerpt: Nitric oxide production was quantified via Greiss assay and intracellular staining with DAF-FM diacetate.
In data set [8] the test system is PAEC. The experiment in a line: Determination of eNOS couple state with ascorbic acid, superoxide by DHE, static. Type of data set: cell-based, Porcine. To be noted: 60 μM H2O2, 1 mM ascorbic acid. How it is done: In order to ascertain the role of the coupled state of eNOS in endothelial cell superoxide production, the presence of superoxide was probed in the presence of ascorbic acid. […] After incubation, 2 μM DHE was added to each sample and incubated for 30 minutes.

Several values for one entry are separate records, joined by “and”; a condition that tells them apart may be missing. Equal values may be shown once. Read-outs that look alike come from different tables or passages of the source.

As to `OO` [H2O2, hydrogen peroxide], in data set [1], the “percent of cells with ruptured cellular membranes” value is recorded as “ten” and the “percent propidium iodide positive cells, challenged PAEC” value was “more than ninety”. In data set [2] (3 μM H2O2, 1.5 hour exposure, 2.0 μM DHE), the “% of PAEC exposed to H2O2 demonstrating intracellular superoxide” value worked out at 1.2±0.2%. Further, the “% of PAEC found to produce intracellular superoxide” value in data set [2] (30 μM H2O2, 1.5 hour exposure, 2.0 μM DHE) came out at 77.1±5.5%. Moreover, the “% of PAEC exhibiting fluorescent nuclei” value in data set [2] (1 mM H2O2) came to 76.1±6.8%. In data set [2] (increasing H2O2 concentration, most notably at 1 mM), the “cell membrane integrity of PAEC” value is on record as “loss in cell membrane integrity in a dose dependant manner”. Further, in data set [3] (60 μM H2O2, no L-NAME), the “% cells with fluorescent nuclei, challenged non-inhibited group” value came to 23.8±3.8%. In data set [4] (static culture), the “fold increase in percent of superoxide producing cells, control vs H2O2 stressed” value is on record as 10 fold. Also, in data set [4] (static, H2O2 challenged PAEC (60 μM H2O2)), the “% of cells having fluorescent nuclei” value stood at 51.8±1.1%. Besides, the “% of PAEC exposed to H2O2 demonstrating intracellular superoxide” value in data set [5] is given as 49.5±3.3%. In data set [6], the “% of cells with fluorescent nuclei, challenged PAEC (non-infected)” value amounted to 50.3±4.1% and the “fold increase in percent of superoxide producing cells, non-infected control vs H2O2 stressed” value is 30 fold. For the same compound, the “NO production (DAF-AM acetate intracellular staining)” value in data set [7] is listed as “no significant increases”.
As to `COC(=O)[C@@H](N)CCCNC(=N)N[N+](=O)[O-]` [L-NAME, N^G-nitro-L-arginine methyl ester], in data set [3] (no H2O2, 1 mM L-NAME), the “% cells with fluorescent nuclei, control with eNOS inhibition” value was 2.2±0.5% and 2.9±0.3%.
For `Oc1ncnc2[nH]ncc12` [allopurinol], in data set [4] (static), the “% of cells with fluorescent nuclei, hydrogen peroxide exposed sample with inhibitor” value (“% of cells … with inhibitor” for short) was determined as 35.6±1.3% and the “% cells with fluorescent nuclei, control sample cultured with inhibitor” value (“% cells with fluorescent nuclei … with inhibitor” below) was 4.1±0.4%.
In the case of `COc1cc(C(C)=O)ccc1O` [apocynin, Apocynin], the “effect on superoxide production” value in data set [4] (apocynin 0.5 mM) is recorded as “minimal effects”. Also, in data set [4] (static), the “% of cells … with inhibitor” value was found to be 35.1±2.0% and the “% cells with fluorescent nuclei … with inhibitor” value turned out to be 14.2±1.3%.
`O=C1O[C@H]([C@@H](O)CO)C(O)=C1O` [ascorbic acid, Ascorbic Acid]: the “superoxide production in presence of ascorbic acid” value in data set [8] is recorded as “almost completely inhibited”.
On to `CC(C(=O)O)c1ccc(-c2ccccc2)c(F)c1` (stereo not shown) [flurbiprofen], for which, in data set [4] (static), the “% of cells … with inhibitor” value was 46.8±1.4% and the “% cells with fluorescent nuclei … with inhibitor” value came out at 3.9±0.4%.

The values above are taken from patent US20080033040A1, “Methods And Compositions For Screening Involving Endothelial Cells Under Shearing Conditions” (priority 2004, published 2008).
